Data reported in the supplement of paper PMC4932681.

What was measured:
T-47D Tam2 [1] = assay: relative IC50 (midpoint of fitted logistic curve, plateau may be below 50% inhibition; CellTiter-Glo viability); higher = less potent; details: 4-OH-tamoxifen in medium 1 µM; 72 h
How it was run: (§1)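 Breast cancer cell lines and their resistant derivatives were seeded into 384-well plates containing library drugs at five concentrations across a 10 000-fold range, with resistant lines kept in medium with 1 μM of the selecting drug. After 72 h at 37 °C, CellTiter-Glo viability was read on a PHERAstar and normalised to vehicle-only and positive controls. Logistic dose–response fits in the Breeze pipeline gave drug sensitivity score, relative IC50 (curve midpoint) and top-dose inhibition.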

BT-474 [2] = assay: as above; details: 72 h
How it was run: as §1

T-47D Tam1 [3] = assay: as above; details: 4-OH-tamoxifen in medium 1 µM; 72 h
How it was run: as §1

MCF-7 [4] = assay: as above; details: 72 h
How it was run: as §1

ZR-75-1 [5] = assay: as above; details: 72 h
How it was run: as §1

BT-474 Tam1 [6] = assay: as above; details: 4-OH-tamoxifen in medium 1 µM; 72 h
How it was run: as §1

ZR-75-1 Tam2 [7] = assay: as above; details: 4-OH-tamoxifen in medium 1 µM; 72 h
How it was run: as §1

T-47D [8] = assay: as above; details: 72 h
How it was run: as §1

BT-474 Tam2 [9] = assay: as above; details: 4-OH-tamoxifen in medium 1 µM; 72 h
How it was run: as §1

T-47D Tam2 [10] = assay: drug sensitivity score (DSS) (DSS (dimensionless)); higher = more sensitive; extreme values may be limits of the assay; details: 4-OH-tamoxifen in medium 1 µM; 72 h
Description: (§2)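 FIMM FO2B library drugs were tested at 5 concentrations (10,000-fold range) for 72 h, with CellTiter-Glo viability normalised to DMSO and benzethonium chloride controls. The Drug Sensitivity Score (DSS) is computed from the fitted logistic dose-response curve (area-based; 0 = inactive). Resistant lines and the 'in 1µM tamoxifen' arms were tested in 1 µM 4-OH-tamoxifen.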

MCF-7 Tam1 = assay: as above; details: 4-OH-tamoxifen in medium 1 µM; 72 h
Description: as §2

ZR-75-1 Tam1 [11] = assay: as above; details: 4-OH-tamoxifen in medium 1 µM; 72 h
Description: as §2

BT-474 [12] = assay: as above; details: 72 h
Description: as §2

T-47D Tam1 [13] = assay: as above; details: 4-OH-tamoxifen in medium 1 µM; 72 h
Description: as §2

MCF-7 [14] = assay: as above; details: 72 h
Description: as §2

ZR-75-1 [15] = assay: as above; details: 72 h
Description: as §2

BT-474 Tam1 [16] = assay: as above; details: 4-OH-tamoxifen in medium 1 µM; 72 h
Description: as §2

ZR-75-1 Tam2 [17] = assay: as above; details: 4-OH-tamoxifen in medium 1 µM; 72 h
Description: as §2

T-47D [18] = assay: as above; details: 72 h
Description: as §2

BT-474 Tam2 [19] = assay: as above; details: 4-OH-tamoxifen in medium 1 µM; 72 h
Description: as §2

ZR-75-1 Tam1 [20] = assay: relative IC50 (midpoint of fitted logistic curve, plateau may be below 50% inhibition; CellTiter-Glo viability); higher = less potent; details: 4-OH-tamoxifen in medium 1 µM; 72 h
How it was run: as §1

Row | Structure (SMILES) | relative IC50 (T-47D Tam2 [1]) [µM] | relative IC50 (BT-474 [2]; 4-OH-tamoxifen in medium 0 µM) [µM] | relative IC50 (BT-474 [2]; 4-OH-tamoxifen in medium 1 µM) [µM] | relative IC50 (T-47D Tam1 [3]) [µM] | relative IC50 (MCF-7 [4]; 4-OH-tamoxifen in medium 0 µM) [µM] | relative IC50 (MCF-7 [4]; 4-OH-tamoxifen in medium 1 µM) [µM] | relative IC50 (ZR-75-1 [5]; 4-OH-tamoxifen in medium 0 µM) [µM] | relative IC50 (ZR-75-1 [5]; 4-OH-tamoxifen in medium 1 µM) [µM] | relative IC50 (BT-474 Tam1 [6]) [µM] | relative IC50 (ZR-75-1 Tam2 [7]) [µM] | relative IC50 (T-47D [8]; 4-OH-tamoxifen in medium 0 µM) [µM] | relative IC50 (T-47D [8]; 4-OH-tamoxifen in medium 1 µM) [µM] | relative IC50 (BT-474 Tam2 [9]) [µM] | drug sensitivity score (T-47D Tam2 [10]) | drug sensitivity score (MCF-7 Tam1) | drug sensitivity score (ZR-75-1 Tam1 [11]) | drug sensitivity score (BT-474 [12]; 4-OH-tamoxifen in medium 0 µM) | drug sensitivity score (BT-474 [12]; 4-OH-tamoxifen in medium 1 µM) | drug sensitivity score (T-47D Tam1 [13]) | drug sensitivity score (MCF-7 [14]; 4-OH-tamoxifen in medium 0 µM) | drug sensitivity score (MCF-7 [14]; 4-OH-tamoxifen in medium 1 µM) | drug sensitivity score (ZR-75-1 [15]; 4-OH-tamoxifen in medium 0 µM) | drug sensitivity score (ZR-75-1 [15]; 4-OH-tamoxifen in medium 1 µM) | drug sensitivity score (BT-474 Tam1 [16]) | drug sensitivity score (ZR-75-1 Tam2 [17]) | drug sensitivity score (T-47D [18]; 4-OH-tamoxifen in medium 0 µM) | drug sensitivity score (T-47D [18]; 4-OH-tamoxifen in medium 1 µM) | drug sensitivity score (BT-474 Tam2 [19]) | relative IC50 (ZR-75-1 Tam1 [20]) [µM]
1 | CC[C@]1(O)C[C@H]2CN(CCc3c([nH]c4ccccc34)[C@@](C(=O)OC)(c3cc4c(cc3OC)N(C=O)[C@H]3[C@@](O)(C(=O)OC)[C@H](OC(C)=O)[C@]5(CC)C=CCN6CC[C@]43[C@@H]65)C2)C1 [Vincristine] | 0.0268 | 0.00233 | 0.0119 | 0.0385 | 0.0249 | 0.0265 | 0.00369 | 0.0215 | 0.0209 | 0.116 | 0.00441 | 0.0881 | 0.0142 | 17.3 | 0.209 | 7.19 | 21.4 | 31.3 | 19.3 | 19.1 | 16.8 | 17.3 | 10.9 | 30.7 | 8.05 | 13.8 | 6.49 | 30.8 | –
2 | Nc1ccccc1NC(=O)c1ccc(CNc2nccc(-c3cccnc3)n2)cc1 [Mocetotinostat (MGCD0103)] | 1.39 | 2.06 | 1.38 | 0.688 | 1.76 | 2 | 2.72 | – | 2.15 | 1.48 | 3.29 | 3.22 | 1.21 | 3.42 | 0.799 | 2.33 | 5.13 | 9.43 | 6.2 | 6.98 | 4.99 | 1.76 | 1.86 | 7.26 | 2.62 | 4.36 | 4.03 | 8.98 | –
3 | CC[C@]1(O)C[C@@H]2CN(CCc3c([nH]c4ccccc34)[C@@](C(=O)OC)(c3cc4c(cc3OC)N(C)[C@H]3[C@@](O)(C(=O)OC)[C@H](OC(C)=O)[C@]5(CC)C=CCN6CC[C@]43[C@@H]65)C2)C1 [Vinblastine] | 0.0442 | 0.00377 | 0.0097 | 0.0692 | 0.00994 | 0.0138 | 0.00423 | 0.174 | 0.0481 | 0.0789 | 0.113 | – | 0.0244 | 8.2 | 0.0008 | 1.94 | 13.2 | 21.5 | 6.59 | 12.8 | 12.5 | 11.9 | 2.61 | 13.1 | 3.58 | 2.77 | 0.561 | 17.1 | 0.214
4 | NC1(c2ccc(-c3nc4ccn5c(=O)[nH]nc5c4cc3-c3ccccc3)cc2)CCC1 [MK-2206] | 0.111 | – | 0.335 | 0.101 | 0.315 | 0.119 | 0.0736 | 0.0546 | 0.17 | 0.0782 | 0.114 | 0.177 | – | 5.54 | 2.56 | 7.57 | 1.68 | 2.54 | 5.11 | 1.67 | 4.73 | 6.86 | 7.22 | 4.04 | 7.96 | 5.76 | 2.9 | 0.553 | 0.0685
5 | COc1cc(Nc2ncc3c(n2)-c2ccc(Cl)cc2C(c2c(F)cccc2OC)=NC3)ccc1C(=O)O [Alisertib (MLN8237)] | 0.821 | – | 3.45 | 1.05 | – | – | > 10 | – | – | > 10 | – | – | > 10 | 4.18 | 0.522 | 0 | 0.464 | 1.48 | 3.59 | 0.284 | 0 | 0 | 0 | 0.0274 | 0 | 3.12 | 0.856 | 0 | > 10
6 | O=C(CCCCCCC(=O)Nc1ccccc1)NO [Vorinostat] | 3.06 | 2.31 | 1.09 | 1.65 | 1.43 | 1.33 | 2.9 | 3.66 | 2.43 | 2.27 | 2.63 | 3.67 | 1.89 | 2.19 | 0.897 | 3.29 | 5.53 | 10.5 | 5.24 | 8.23 | 8.2 | 1.99 | 1.27 | 6.36 | 2.51 | 5.73 | 4.3 | 7.23 | 1.65
7 | CS(=O)(=O)c1ccc(C(=O)Nc2ccc(Cl)c(-c3ccccn3)c2)c(Cl)c1 [Vismodegib] | > 10 | > 10 | > 10 | > 10 | > 10 | > 10 | > 10 | > 10 | – | – | > 10 | > 10 | > 10 | 0 | 0 | 0 | 0 | 0 | 0 | 0 | 0 | 0 | 0 | 0.264 | 0 | 0 | 0 | 0 | > 10
8 | O=c1[nH]cc(F)c(=O)[nH]1 [Fluorouracil] | > 10 | > 10 | > 10 | > 10 | 1.43 | > 10 | – | – | > 10 | – | – | > 10 | > 10 | 0 | 0 | 0 | 0 | 0 | 0 | 2.93 | 0 | 1.39 | 0.596 | 0 | 3.05 | 0.0675 | 0 | 0 | > 10
